Literature values, collected in PubChem BioAssay AID1259409 (Chemical Carcinogenesis Research Information System (CCRIS), 2018).

Test system: rodent chemically induced tumor inhibition, incidence and multiplicity
Experiment: CCRIS tumor inhibitor studies
Settings: Route [Inhibitor]: ORAL

Cn1c(=O)c2c(ncn2C)n(C)c1=O
tumour outcome (control, treated, inhibition, significance) (Carcinogen: 2-AMINO-1-METHYL-6-PHENYLIMIDAZO[4,5-B]PYRIDINE [105650-23-5], Dose [Inhibitor]: 0.1% IN DRINKING WATER FOR 54 WK (STUDY DURATION: 54 WK), Species: RAT, Strain/Sex: F344/DUCRJ/FEMALE, Target Tissue: Type of Lesion: MAMMARY GLAND: ADENOMA OR ADENOCARCINOMA, Dose [Carcinogen]: 0.02% IN DIET FOR 54 WK (STUDY DURATION: 54 WK), Promoter: NONE): 8/20 (40%), 2/20 (10%), 75%, p<0.05
tumour outcome (control, treated, inhibition, significance) (Carcinogen: 4-(METHYLNITROSAMINO)-1-(3-PYRIDYL)-1-BUTANONE, 64091-91-4, Dose [Inhibitor]: 0, 1120 MG IN DRINKING WATER FOR 13 WK BEGINNING 2 WK PRIOR TO CARCINOGEN TREATMENT (STUDY DURATION: 18 WK), Species: MOUSE, Strain/Sex: STRAIN-A/FEMALE, Target Tissue: Type of Lesion: LUNG: ADENOMA, Dose [Carcinogen]: 11.65 MG/KG 3/WK FOR 10 WK, Promoter: NONE USED): 100%, 100%, 0%, not significant
tumour outcome (control, treated, inhibition, significance) (Carcinogen: 4-(METHYLNITROSAMINO)-1-(3-PYRIDYL-1-BUTANONE), 64091-91-4, Dose [Inhibitor]: 0, 170 PPM IN DRINKING WATER FOR 22WK BEGINNING 1 WK PRIOR TO CARCINOGEN TREATMENT (STUDY DURATION:101 WK), Species: RAT, Strain/Sex: F344/MALE, Target Tissue: Type of Lesion: LIVER: TUMOR, Dose [Carcinogen]: 1.5 MG/KG 3/WK FOR 20 WK, Promoter: NONE USED): 11/32 (34%), 5/20 (25%), 26%, not significant
tumour outcome (control, treated, inhibition, significance) (Carcinogen: 4-(METHYLNITROSAMINO)-1-(3-PYRIDYL-1-BUTANONE), 64091-91-4, Dose [Inhibitor]: 0, 170 PPM IN DRINKING WATER FOR 22 WK BEGINNING 1 WK PRIOR TO CARCINOGEN TREATMENT (STUDY DURATION:101 WK), Species: RAT, Strain/Sex: F344/MALE, Target Tissue: Type of Lesion: LUNG:TUMOR, Dose [Carcinogen]: 1.5 MG/KG 3/WK FOR 20 WK, Promoter: NONE USED): 15/32 (47%), 4/20 (20%), 57%, not significant
tumour outcome (control, treated, inhibition, significance) (Carcinogen: 4-(METHYLNITROSAMINO)-1-(3-PYRIDYL-1-BUTANONE), 64091-91-4, Dose [Inhibitor]: 0, 170 PPM IN DRINKING WATER FOR 22 WK BEGINNING 1 WK PRIOR TO CARCINOGEN TREATMENT (STUDY DURATION:101 WK), Species: RAT, Strain/Sex: F344/MALE, Target Tissue: Type of Lesion: NASAL CAVITY: TUMOR, Dose [Carcinogen]: 1.5 MG/KG 3/WK FOR 20 WK, Promoter: NONE USED): 6/32 (19%), 3/20 (15%), 21%, not significant
tumour outcome (control, treated, inhibition, significance) (Carcinogen: 4-(METHYLNITROSAMINO)-1-(3-PYRIDYL-1-BUTANONE), 64091-91-4, Dose [Inhibitor]: 0, 680 PPM IN DRINKING WATER FOR 22 WK BEGINNING 1 WK PRIOR TO CARCINOGEN TREATMENT (STUDY DURATION:101 WK), Species: RAT, Strain/Sex: F344/MALE, Target Tissue: Type of Lesion: LUNG:TUMOR, Dose [Carcinogen]: 1.5 MG/KG 3/WK FOR 20 WK, Promoter: NONE USED): 15/32 (47%), 2/20 (10%), 79%, p<0.01
tumour outcome (control, treated, inhibition, significance) (Carcinogen: 4-(METHYLNITROSAMINO)-1-(3-PYRIDYL-1-BUTANONE), 64091-91-4, Dose [Inhibitor]: 0, 680 PPM IN DRINKING WATER FOR 22 WK BEGINNING 1 WK PRIOR TO CARCINOGEN TREATMENT (STUDY DURATION: 101 WK), Species: RAT, Strain/Sex: F344/MALE, Target Tissue: Type of Lesion: NASAL CAVITY: TUMOR, Dose [Carcinogen]: 1.5 MG/KG 3/WK FOR 20 WK, Promoter: NONE USED): 6/32 (19%), 5/20 (25%), -32%, not significant
tumour outcome (control, treated, inhibition, significance) (Carcinogen: 4-METHYLNITROSAMINO-1-(3-PYRIDYL)-1-BUTANONE, 64091-91-4, Dose [Inhibitor]: 0, 1120 PPM IN DRINKING WATER 2 WK PRIOR TO CARCINOGEN AND CONTINUING FOR 13 WK (STUDY DURATION: 29 WK), Species: MOUSE, Strain/Sex: A/J/FEMALE, Target Tissue: Type of Lesion: LUNG: ADENOMA, Dose [Carcinogen]: 11.65 MG/KG IN CORN OIL 3/WK FOR 10 WK, Promoter: NONE USED): 100%, 100%, 0%, not significant
tumour outcome (control, treated, inhibition, significance) (Carcinogen: 7,12-DIMETHYLBENZ[A]ANTHRACENE, 57-97-6, Dose [Inhibitor]: 0, 500 MG/L IN DRINKING WATER BEGINNING AT 27 D OF AGE AND CONTINUING TO 59 D OF AGE (STUDY DURATION: 52 WK), Species: RAT, Strain/Sex: SPRAGUE-DAWLEY/FEMALE, Target Tissue: Type of Lesion: MAMMARY GLAND: BENIGN TUMOR, Dose [Carcinogen]: 0.5 MG/100 G BW ONCE AT 55 D OF AGE, Promoter: NONE USED): 71/73 (97%), 65/70 (93%), 4%, not significant
tumour outcome (control, treated, inhibition, significance) (Carcinogen: 7,12-DIMETHYLBENZ[A]ANTHRACENE, 57-97-6, Dose [Inhibitor]: 0, 500 MG/L IN DRINKING WATER BEGINNING AT 27 D OF AGE AND CONTINUING TO 59 D OF AGE (STUDY DURATION: 52 WK), Species: RAT, Strain/Sex: SPRAGUE-DAWLEY/FEMALE, Target Tissue: Type of Lesion: MAMMARY GLAND: CARCINOMA, Dose [Carcinogen]: 0.5 MG/100 G BW ONCE AT 55 D OF AGE, Promoter: NONE USED): 42/73 (58%), 20/70 (29%), 50%, p<0.001
tumour outcome (control, treated, inhibition, significance) (Carcinogen: 7,12-DIMETHYLBENZ[A]ANTHRACENE, 57-97-6, Dose [Inhibitor]: 0, 500 MG/L IN DRINKING WATER BEGINNING AT 59 D OF AGE AND CONTINUING FOR DURATION OF STUDY (STUDY DURATION: 48 WK), Species: RAT, Strain/Sex: SPRAGUE-DAWLEY/FEMALE, Target Tissue: Type of Lesion: MAMMARY GLAND: BENIGN TUMOR, Dose [Carcinogen]: 0.5 MG/100 G BW ONCE AT 55 D OF AGE, Promoter: NONE USED): 70/72 (97%), 55/62 (89%), 8%, p,0.05
tumour outcome (control, treated, inhibition, significance) (Carcinogen: 7,12-DIMETHYLBENZ[A]ANTHRACENE, 57-97-6, Dose [Inhibitor]: 0, 500 MG/L IN DRINKING WATER BEGINNING AT 59 D OF AGE AND CONTINUING FOR DURATION OF STUDY (STUDY DURATION: 48 WK), Species: RAT, Strain/Sex: SPRAGUE-DAWLEY/FEMALE, Target Tissue: Type of Lesion: MAMMARY GLAND: CARCINOMA, Dose [Carcinogen]: 0.5 MG/100 G BW ONCE AT 55 D OF AGE, Promoter: NONE USED): 39/72 (54%), 31/62 (50%), 7%, not significant
tumour outcome (control, treated, inhibition, significance) (Carcinogen: 7,12-DIMETHYLBENZ[A]ANTHRACENE, 57-97-6, Dose [Inhibitor]: 0, 500 MG/L IN DRINKING WATER OF 58 DAY OLD VIRGIN RATS (STUDY DURATION: 56 WK), Species: RAT, Strain/Sex: SPRAGUE-DAWLEY/FEMALE, Target Tissue: Type of Lesion: MAMMARY GLAND: CARCINOMA, Dose [Carcinogen]: 2 MG/100 G BW ONCE AT 55 D OF AGE, Promoter: NONE USED): 95%, 100%, -5%, not significant
